Values of other authors in patent publication US20180311201A1, “ORAL PHARMACEUTICAL COMPOSITION COMPRISING OTILONIUM BROMIDE AND SIMETHICONE WITH CERTAIN BULK DENSITY AND IMPROVED DISSOLUTION CHARACTERISTICS” (priority 2015, published 2018).

- Solubility in dimethyl sulfoxide (dimethyl sulfoxide): > 25 mg/mL
- Solubility in ethanol (ethanol): soluble
- Solubility in water (water): 12 mg/mL
SMILES: CCCCCCCCOc1ccccc1C(=O)Nc1ccc(C(=O)OCC[N+](C)(CC)CC)cc1.[Br-] [Otilonium bromide, N,N-Diethyl-N-methyl-2-(4-[2-(octyloxy)benzamido]benzoyloxy)ethanaminium bromide]
